Drawing on patent publication US20260374754A1, “N-((ISOQUINOLIN-6-YL)METHYL)-1H-PYRAZOLE-4-CARBOXAMIDE DERIVATIVES AS PLASMA KALLIKREIN INHIBITORS FOR THE TREATMENT OF HEREDITARY ANGIODEMA” (Takeda Pharmaceutical Company Limited, priority 2022, published 2026), this text covers EC50 and IC90 for six compounds.

Assay [1] concerns the target human activated kallikrein enzyme (Homo sapiens, UniProt P03952). As to the kind of experiment: Inhibition of human activated plasma kallikrein, fluorogenic PFR-AMC substrate, 500 pM enzyme format. The class given is biochemical. To be noted: 500 pM activated kallikrein; 300 μM PFR-AMC; 30 min preincubation; 10 min room temperature; pH 7.5; read-out: Primary Dose Response Assay: Average EC50. In a few lines:
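500 pM activated kallikrein preincubated 30 min at room temperature with inhibitors in pH 7.5 Tris/EDTA/NaCl buffer with PEG-400 and Triton X-100. Reaction started with 300 μM PFR-AMC, run 10 min at room temperature; AMC fluorescence read at ex 380/em 460 nm.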

A further assay concerns the target T1, plasma kallikrein (Homo sapiens, UniProt P03952).
T1 construct: PFR-AMC substrate
As to the kind of experiment: Neat Human Plasma Assay (Fluorogenic Peptide), contact pathway-activated (FXIIa) plasma. The conditions noted are these: human citrated plasma 78% final; 10 nM human FXIIa; PFR-AMC substrate; 5 minutes; room temperature. The class given is biochemical. In a few lines: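 Compound spiked into citrated human plasma (78% final), or plasma taken from rats dosed orally or IV. Activation by 10 nM FXIIa, then […] PFR-AMC in PKa buffer pH 7.5 at room temperature. Fluorescence rate over 5 min, with IC50/IC90 from 4-parameter fit.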

T1 sequence (P03952 20-638): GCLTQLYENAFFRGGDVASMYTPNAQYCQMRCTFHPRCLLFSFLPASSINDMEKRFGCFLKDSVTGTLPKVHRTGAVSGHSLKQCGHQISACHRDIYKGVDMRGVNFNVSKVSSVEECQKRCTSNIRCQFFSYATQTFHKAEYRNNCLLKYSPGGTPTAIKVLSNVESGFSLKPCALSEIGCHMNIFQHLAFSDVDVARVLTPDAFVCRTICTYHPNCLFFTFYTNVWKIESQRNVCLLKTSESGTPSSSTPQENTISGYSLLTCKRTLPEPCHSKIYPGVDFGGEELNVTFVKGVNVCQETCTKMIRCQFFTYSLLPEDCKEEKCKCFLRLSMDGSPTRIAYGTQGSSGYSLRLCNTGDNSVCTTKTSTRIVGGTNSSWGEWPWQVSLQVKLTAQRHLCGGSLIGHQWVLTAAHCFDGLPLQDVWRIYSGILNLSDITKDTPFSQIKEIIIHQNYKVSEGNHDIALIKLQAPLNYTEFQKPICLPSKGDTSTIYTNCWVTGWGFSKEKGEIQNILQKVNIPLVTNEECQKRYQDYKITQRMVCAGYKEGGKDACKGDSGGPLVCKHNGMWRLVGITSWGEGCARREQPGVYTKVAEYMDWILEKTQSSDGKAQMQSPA
Sequence of human activated kallikrein enzyme (P03952 391-638 limits assumed): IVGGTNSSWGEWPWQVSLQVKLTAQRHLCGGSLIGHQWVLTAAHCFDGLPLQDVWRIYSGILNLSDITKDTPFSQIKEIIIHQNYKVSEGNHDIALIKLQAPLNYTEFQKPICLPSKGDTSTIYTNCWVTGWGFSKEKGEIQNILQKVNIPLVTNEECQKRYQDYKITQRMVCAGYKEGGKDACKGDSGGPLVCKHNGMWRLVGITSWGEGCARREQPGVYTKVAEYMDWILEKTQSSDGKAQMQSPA
Sequence of human activated kallikrein enzyme (P03952 20-390 partner limits assumed): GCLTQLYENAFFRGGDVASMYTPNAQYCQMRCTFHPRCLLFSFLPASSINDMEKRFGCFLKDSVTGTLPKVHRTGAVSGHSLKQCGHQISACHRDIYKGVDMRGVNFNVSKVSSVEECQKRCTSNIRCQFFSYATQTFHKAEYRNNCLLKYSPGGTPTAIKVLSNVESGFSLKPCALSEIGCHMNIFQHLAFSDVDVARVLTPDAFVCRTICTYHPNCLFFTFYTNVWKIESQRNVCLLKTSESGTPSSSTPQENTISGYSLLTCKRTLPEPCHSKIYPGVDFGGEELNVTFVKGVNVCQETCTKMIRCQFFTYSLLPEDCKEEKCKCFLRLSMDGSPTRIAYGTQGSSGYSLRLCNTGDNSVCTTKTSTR

Regarding `Cc1cc2c(N)nccc2c(C)c1CNc1cc(N2C[C@@H](O)C[C@@H]2c2cn3cc(C4CC4)ccc3n2)ncn1` [Example 513, (3S,5R)-1-(6-(((1-amino-5,7-dimethylisoquinolin-6-yl)methyl)amino)pyrimidin-4-yl)-5-(6-cyclopropylimidazo[1,2-a]pyridin-2-yl)pyrrolidin-3-ol], the EC50 in assay [1] was below 1 nM. On plasma kallikrein, this compound returned a concentration for an effect of 90% (IC90) of at most 1 µM.

With `Cc1cc2c(N)nccc2c(C)c1CNc1cc(OCc2cn3cc(C4CC4)ccc3n2)ccn1` [Example 284, 6-(((4-((6-cyclopropylimidazo[1,2-a]pyridin-2-yl)methoxy)pyridin-2-yl)amino)methyl)-5,7-dimethylisoquinolin-1-amine], the EC50 in assay [1] was below 1 nM. The compound also had an IC90 at plasma kallikrein above 5 µM.

`Cc1cc2c(N)nccc2c(C)c1CNc1nccnc1NCc1cn2cc(C3CC3)ccc2n1` [Example 240]: the EC50 in assay [1] was in the range of 1 to 10 nM. Also, the IC90 at plasma kallikrein lay within 1 to 5 µM.

`Cc1cc2c(N)nccc2c(C)c1CNc1cc(OCc2ccc3ncc(C4CC4)cc3c2)cnn1` [Example 422, 6-(((5-((3-cyclopropylquinolin-6-yl)methoxy)pyridazin-3-yl)amino)methyl)-5,7-dimethylisoquinolin-1-amine]: the EC50 in assay [1] is below 1 nM. Also, the IC90 against plasma kallikrein fell in the range of 1 to 5 µM.

As for `Cc1c(CNc2cc(OCc3cn4cc(C5CC5)ccc4n3)ncn2)c(C2(C)CC2)cc2c(N)nccc12` [Example 390, 6-(((6-((6-cyclopropylimidazo[1,2-a]pyridin-2-yl)methoxy)pyrimidin-4-yl)amino)methyl)-5-methyl-7-(1-methylcyclopropyl)isoquinolin-1-amine], in assay [1], the EC50 was below 1 nM. Also, the IC90 at plasma kallikrein is above 5 µM.

On to `Cc1cc2c(N)nccc2c(C)c1CNc1cc(NCc2ccc(Cn3cccn3)cc2)ncn1` [Example 340, N^4-(4-((1H-pyrazol-1-yl)methyl)benzyl)-N^6-((1-amino-5,7-dimethylisoquinolin-6-yl)methyl)pyrimidine-4,6-diamine], for which the EC50 in assay [1] is below 1 nM. Moreover, the IC90 against plasma kallikrein was above 5 µM.
